How the values were obtained:
IL-1β = assay: Inhibitory effect on cytokine expression (RT-PCR, TNF alpha-induced HaCaT cells): IL-1β; type: cell-based, human; details: TNFα 50 ng/ml, extract 1 μg/ml, Dex 200 nM, non-induced = 1
Procedure: (§1) In order to determine the anti-inflammatory activity of inventive extract, following inhibition test of cytokine expression using HaCaT cell was performed according to the procedure disclosed in the literature (Jeong et al., 2019, J. Invest. Dermatol., May; 139 (5): pp1098-1109). ?
(§2) HaCaT cell (human epithelial keratinocyte cell, 300493, CLS) was inoculated into DMEM medium containing 10% Fetal bovine serum, 100 units/ml of penicillin, 100 μg/ml of streptomycin (D6429, Sigma-Aldrich Co. Ltd) and was incubated in the incubator (HERA cell 150i, Thermo Fisher Scientific Co. Ltd.) maintaining optimum humidity (85-95%) and 5% CO2 atmosphere.
(§3) For performing gene expression test, the incubated cells were transferred to 12 wells and 50 ng/ml of TNF alpha (RC214-12, Biobasic Co. Ltd) was treated therewith for 1 hour to induce inflammatory response.
(§4) 1 hour after inducing the inflammation, 1 μg/ml of inventive extract prepared in Examples was treated with identical medium and subjected to incubation for 1 hour. After the incubation, RNA (FATRR-001, Favorgen) was extracted from the cell and cDNA was synthesized from the RNA using by cDNA synthesis kit (RRO36A, TAKARA). […]

TSLP = assay: Inhibitory effect on cytokine expression (RT-PCR, TNF alpha-induced HaCaT cells): TSLP; type: cell-based, human; details: TNFα 50 ng/ml, extract 1 μg/ml, Dex 200 nM, non-induced = 1
Procedure: as §1, §2, §3, §4

C[C@@H]1C[C@H]2[C@@H]3CCC4=CC(=O)C=C[C@]4(C)[C@@]3(F)[C@@H](O)C[C@]2(C)[C@@]1(O)C(=O)CO [Dex, Dexamethasone]
IL-1β expression (quantitative RT-PCR) (IL-1β): 1.081
TSLP expression (quantitative RT-PCR) (TSLP): 52.49

— patent publication US20230103514A1, “A TOPICAL COMPOSITION COMPRISING AN EXTRACT OF COMBINED HERBS COMPRISING LONGANAE ARILLUS FOR THE SKIN REGENERATION AND THE TREATMENT OR ALLEVIATION OF SKIN WOUND AND THE USE THEREOF” (MEDIHELPLINE CO., LTD, priority 2020, published 2023)
